Test results from PubChem BioAssay AID2060912 (Molecular Pharmacology Branch, DTP, NCI, 2025).
pIC50: −log10 of the molar value.

Tested on: HUVEC/MSC spheroids viability
Experiment: Human HUVEC/MSC cell line growth inhibition [KRAS2];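 for viability, T/C: percent of DMSO vehicle control luminescence so 100% = untreated viability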
Settings: for pIC50: curve of first compound; for viability, T/C: stronger effect = lower value
Method in brief: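 Endothelial cells (HUVEC) plus mesenchymal stem cells, cultured at 37 °C/5% CO2 and assembled into spheroids without cancer cells, served as a stromal control. Drug pairs and single agents spanned half-log ranges anchored to clinical Cmax.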

[1] = second compound 0.0316 µM, first compound 0.0316 µM
[2] = second compound 0.0316 µM, first compound 0.1 µM
[3] = second compound 0.0316 µM, first compound 0.316 µM
[4] = second compound 0.0316 µM, first compound 1 µM
[5] = second compound 0.0316 µM, first compound 3.16 µM
[6] = second compound 0.0316 µM, first compound 10 µM
[7] = second compound 0.1 µM, first compound 0.0316 µM
[8] = second compound 0.1 µM, first compound 0.1 µM
[9] = second compound 0.1 µM, first compound 0.316 µM
[10] = second compound 0.1 µM, first compound 1 µM
[11] = second compound 0.1 µM, first compound 3.16 µM
[12] = second compound 0.1 µM, first compound 10 µM
[13] = second compound 0.316 µM, first compound 0.0316 µM
[14] = second compound 0.316 µM, first compound 0.1 µM
[15] = second compound 0.316 µM, first compound 0.316 µM
[16] = second compound 0.316 µM, first compound 1 µM
[17] = second compound 0.316 µM, first compound 3.16 µM
[18] = second compound 0.316 µM, first compound 10 µM
[19] = second compound 1 µM, first compound 0.0316 µM
[20] = second compound 1 µM, first compound 0.1 µM
[21] = second compound 1 µM, first compound 0.316 µM
[22] = second compound 1 µM, first compound 1 µM
[23] = second compound 1 µM, first compound 3.16 µM
[24] = second compound 1 µM, first compound 10 µM
[25] = second compound 3.16 µM, first compound 0.0316 µM
[26] = second compound 3.16 µM, first compound 0.1 µM
[27] = second compound 3.16 µM, first compound 0.316 µM
[28] = second compound 3.16 µM, first compound 1 µM
[29] = second compound 3.16 µM, first compound 3.16 µM
[30] = second compound 3.16 µM, first compound 10 µM
[31] = second compound 10 µM, first compound 0.0316 µM
[32] = second compound 10 µM, first compound 0.1 µM
[33] = second compound 10 µM, first compound 0.316 µM
[34] = second compound 10 µM, first compound 1 µM
[35] = second compound 10 µM, first compound 3.16 µM
[36] = second compound 10 µM, first compound 10 µM

Compound: CC1OCC2(CCN(c3cnc(Sc4ccnc(N)c4Cl)c(N)n3)CC2)C1N (stereo unspecified) + C=CC(=O)N1CCN(c2nc(=O)n(-c3c(C)ccnc3C(C)C)c3nc(-c4c(O)cccc4F)c(F)cc23)C(C)C1
- pIC50 (second compound 0.0316 µM): < 5.00
- pIC50 (second compound 0.1 µM): < 5.00
- pIC50 (second compound 0.316 µM): < 5.00
- pIC50 (second compound 1 µM): < 5.00
- pIC50 (second compound 3.16 µM): < 5.00
- pIC50 (second compound 10 µM): < 5.00
- viability, T/C [1]: 118%
- viability, T/C [2]: 101%
- viability, T/C [3]: 105%
- viability, T/C [4]: 80.5%
- viability, T/C [5]: 70.1%
- viability, T/C [6]: 70.5%
- viability, T/C [7]: 110%
- viability, T/C [8]: 107%
- viability, T/C [9]: 97.2%
- viability, T/C [10]: 84.3%
- viability, T/C [11]: 72%
- viability, T/C [12]: 67.9%
- viability, T/C [13]: 96.8%
- viability, T/C [14]: 129%
- viability, T/C [15]: 92.1%
- viability, T/C [16]: 88%
- viability, T/C [17]: 81.8%
- viability, T/C [18]: 78.5%
- viability, T/C [19]: 101%
- viability, T/C [20]: 126%
- viability, T/C [21]: 105%
- viability, T/C [22]: 99.7%
- viability, T/C [23]: 89%
- viability, T/C [24]: 77.5%
- viability, T/C [25]: 116%
- viability, T/C [26]: 136%
- viability, T/C [27]: 111%
- viability, T/C [28]: 92.7%
- viability, T/C [29]: 109%
- viability, T/C [30]: 71.3%
- viability, T/C [31]: 104%
- viability, T/C [32]: 121%
- viability, T/C [33]: 120%
- viability, T/C [34]: 98.3%
- viability, T/C [35]: 95.5%
- viability, T/C [36]: 54.7%

Compound: Cn1nccc1Nc1nccc(-c2cc3c(s2)C(C)(C)N(CCN2CCOCC2)C3=O)n1 + C=CC(=O)N1CCN(c2nc(=O)n(-c3c(C)ccnc3C(C)C)c3nc(-c4c(O)cccc4F)c(F)cc23)C(C)C1
- pIC50 (second compound 0.0316 µM): 5.53
- pIC50 (second compound 0.1 µM): 5.58
- pIC50 (second compound 0.316 µM): 5.57
- pIC50 (second compound 1 µM): 5.51
- pIC50 (second compound 3.16 µM): 5.58
- pIC50 (second compound 10 µM): 5.59
- viability, T/C [1]: 86.7%
- viability, T/C [2]: 102%
- viability, T/C [3]: 112%
- viability, T/C [4]: 93.3%
- viability, T/C [5]: 47.7%
- viability, T/C [6]: 5.76%
- viability, T/C [7]: 105%
- viability, T/C [8]: 108%
- viability, T/C [9]: 105%
- viability, T/C [10]: 93.4%
- viability, T/C [11]: 42.1%
- viability, T/C [12]: 9.02%
- viability, T/C [13]: 99.2%
- viability, T/C [14]: 114%
- viability, T/C [15]: 98.6%
- viability, T/C [16]: 99.6%
- viability, T/C [17]: 42.2%
- viability, T/C [18]: 5.77%
- viability, T/C [19]: 99.8%
- viability, T/C [20]: 118%
- viability, T/C [21]: 129%
- viability, T/C [22]: 90.2%
- viability, T/C [23]: 51.1%
- viability, T/C [24]: 4.48%
- viability, T/C [25]: 115%
- viability, T/C [26]: 129%
- viability, T/C [27]: 112%
- viability, T/C [28]: 84%
- viability, T/C [29]: 45.3%
- viability, T/C [30]: 4.12%
- viability, T/C [31]: 150%
- viability, T/C [32]: 128%
- viability, T/C [33]: 135%
- viability, T/C [34]: 106%
- viability, T/C [35]: 37%
- viability, T/C [36]: 3.03%

Compound: CC(=O)OC12COC1CC(O)C1(C)C(=O)C(O)C3=C(C)C(OC(=O)C(O)C(NC(=O)OC(C)(C)C)c4ccccc4)CC(O)(C(OC(=O)c4ccccc4)C21)C3(C)C (stereo unspecified) + C=CC(=O)N1CCN(c2nc(OCC3CCCN3C)nc3c2CCN(c2cccc4cccc(C)c24)C3)CC1CC#N
- pIC50 (second compound 0.00949 µM): > 8.02
- pIC50 (second compound 0.03 µM): > 8.02
- pIC50 (second compound 0.0949 µM): > 8.02
- pIC50 (second compound 0.3 µM): > 8.02
- pIC50 (second compound 0.949 µM): > 8.02
- pIC50 (second compound 3 µM): < 5.52
- viability, T/C (second compound 0.00949 µM, first compound 0.00949 µM): 48.9%
- viability, T/C (second compound 0.00949 µM, first compound 0.03 µM): 42.7%
- viability, T/C (second compound 0.00949 µM, first compound 0.0949 µM): 47.8%
- viability, T/C (second compound 0.00949 µM, first compound 0.3 µM): 47%
- viability, T/C (second compound 0.00949 µM, first compound 0.949 µM): 47.8%
- viability, T/C (second compound 0.00949 µM, first compound 3 µM): 58%
- viability, T/C (second compound 0.03 µM, first compound 0.00949 µM): 44.7%
- viability, T/C (second compound 0.03 µM, first compound 0.03 µM): 40.9%
- viability, T/C (second compound 0.03 µM, first compound 0.0949 µM): 38%
- viability, T/C (second compound 0.03 µM, first compound 0.3 µM): 48.1%
- viability, T/C (second compound 0.03 µM, first compound 0.949 µM): 47.1%
- viability, T/C (second compound 0.03 µM, first compound 3 µM): 49.4%
- viability, T/C (second compound 0.0949 µM, first compound 0.00949 µM): 44.3%
- viability, T/C (second compound 0.0949 µM, first compound 0.03 µM): 42.1%
- viability, T/C (second compound 0.0949 µM, first compound 0.0949 µM): 41.6%
- viability, T/C (second compound 0.0949 µM, first compound 0.3 µM): 40.4%
- viability, T/C (second compound 0.0949 µM, first compound 0.949 µM): 45.1%
- viability, T/C (second compound 0.0949 µM, first compound 3 µM): 48.3%
- viability, T/C (second compound 0.3 µM, first compound 0.00949 µM): 40.4%
- viability, T/C (second compound 0.3 µM, first compound 0.03 µM): 49.7%
- viability, T/C (second compound 0.3 µM, first compound 0.0949 µM): 45%
- viability, T/C (second compound 0.3 µM, first compound 0.3 µM): 34.3%
- viability, T/C (second compound 0.3 µM, first compound 0.949 µM): 48.1%
- viability, T/C (second compound 0.3 µM, first compound 3 µM): 55%
- viability, T/C (second compound 0.949 µM, first compound 0.00949 µM): 44.7%
- viability, T/C (second compound 0.949 µM, first compound 0.03 µM): 48.3%
- viability, T/C (second compound 0.949 µM, first compound 0.0949 µM): 50.5%
- viability, T/C (second compound 0.949 µM, first compound 0.3 µM): 44.5%
- viability, T/C (second compound 0.949 µM, first compound 0.949 µM): 63.9%
- viability, T/C (second compound 0.949 µM, first compound 3 µM): 51.5%
- viability, T/C (second compound 3 µM, first compound 0.00949 µM): 82.6%
- viability, T/C (second compound 3 µM, first compound 0.03 µM): 76.2%
- viability, T/C (second compound 3 µM, first compound 0.0949 µM): 75.6%
- viability, T/C (second compound 3 µM, first compound 0.3 µM): 62.6%
- viability, T/C (second compound 3 µM, first compound 0.949 µM): 67.5%
- viability, T/C (second compound 3 µM, first compound 3 µM): 90.5%
